Here are results for 1 molecule from patent US20130231262A1, “ENGINEERED PROTEIN: "2-COLOR SERCA", AN ION-MOTIVE ATPase FUSED TO CERULEAN AND YELLOW FLUORESCENT PROTEIN” (LOYOLA UNIVERSITY CHICAGO, priority 2012, published 2013).

Assay [1] deals with T1, 2-color SERCA (construct 509) (Canis lupus familiaris, UniProt O46674).
T1 construct: other: Tg-dependent FRET change of construct 509; mCerulean (Cer) was fused to the N-terminus of canine SERCA2a; fused on or other part: mCerulean at the N-terminus
T1 sequence (O46674 whole entry, the tested form may be a part): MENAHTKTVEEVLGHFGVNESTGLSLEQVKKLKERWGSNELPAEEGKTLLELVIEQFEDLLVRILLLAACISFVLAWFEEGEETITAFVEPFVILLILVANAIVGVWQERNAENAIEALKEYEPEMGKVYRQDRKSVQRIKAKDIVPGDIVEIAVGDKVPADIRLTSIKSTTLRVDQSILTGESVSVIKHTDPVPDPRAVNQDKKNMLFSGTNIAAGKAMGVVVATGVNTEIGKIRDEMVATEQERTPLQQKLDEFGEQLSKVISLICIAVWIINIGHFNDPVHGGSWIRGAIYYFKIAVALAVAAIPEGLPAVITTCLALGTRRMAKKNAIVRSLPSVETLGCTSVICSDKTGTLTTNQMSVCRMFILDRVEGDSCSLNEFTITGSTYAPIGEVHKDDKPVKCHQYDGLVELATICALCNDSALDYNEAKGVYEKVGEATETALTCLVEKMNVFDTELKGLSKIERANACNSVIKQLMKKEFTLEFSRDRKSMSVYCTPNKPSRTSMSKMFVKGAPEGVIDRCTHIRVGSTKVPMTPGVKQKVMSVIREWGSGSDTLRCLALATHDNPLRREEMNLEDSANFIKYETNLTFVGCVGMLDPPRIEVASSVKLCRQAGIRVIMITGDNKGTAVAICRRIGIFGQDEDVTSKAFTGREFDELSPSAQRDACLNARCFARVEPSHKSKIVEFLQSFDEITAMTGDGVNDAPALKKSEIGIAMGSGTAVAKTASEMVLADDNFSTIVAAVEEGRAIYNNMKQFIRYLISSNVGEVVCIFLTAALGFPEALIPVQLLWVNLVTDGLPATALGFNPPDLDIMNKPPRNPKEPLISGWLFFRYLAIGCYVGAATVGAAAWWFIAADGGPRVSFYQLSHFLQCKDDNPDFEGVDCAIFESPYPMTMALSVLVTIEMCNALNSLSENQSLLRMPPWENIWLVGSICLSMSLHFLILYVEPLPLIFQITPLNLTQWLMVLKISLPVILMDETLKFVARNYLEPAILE
The experiment in a line: Tg titration of 2-color SERCA FRET change in AAV-293 cells. The assay is classed as cell-based, canine. On the procedure:
One consequence of the slow FRET response at low concentrations of Tg is that the apparent EC50 decreased over time. This is evident in FIG. 8B as a left shift in the binding curve with time. This change is quantified in FIG. 8C. The apparent upper limit estimate of EC50 (obtained from the final EC50 value) was approximately 100 nM, which is compatible with the subnanomolar affinity of the Tg-SERCA complex.

Assay [2] has as its system 2-color SERCA (construct 509). The following applies: cited from earlier work.

The EC50 is the midpoint of the concentration-response curve. Low readings indicate an effect from little substance, high ones a need for much substance. `C/C=C(/C)C(=O)O[C@H]1C(C)=C2[C@H]([C@@H]1OC(=O)CCCCCCC)[C@@](C)(OC(C)=O)C[C@H](OC(=O)CCC)[C@@]1(O)[C@H]2OC(=O)[C@@]1(C)O` [Tg, thapsigargin]: in assay [1], the 50% effective concentration (EC50) is ~100 nM. The “affinity of the Tg-SERCA complex” value in assay [2] is given as “subnanomolar”.
